Laboratory results published in US11219613B2, “Pharmaceutical composition for preventing and treating liver diseases, containing, as active ingredient, cromolyn or pharmaceutically acceptable salt thereof” (ONCOCROSS CO., LTD., priority 2015, dated 2022).
Like-named read-outs stand apart in the source and are kept apart here.

How the values were obtained:
[1] = system: LX-2 cell line
Method: (§1) Specifically, while gradually increasing the amounts of cromolyn and ionomycin in an independent cell culture medium, the amount of LDH released into the above culture medium was measured, and the experiment was conducted by using a LDH cytotoxicity assay kit (Cayman Chemical, USA) according to the method provided by the manufacturer. First, the cells were grown in DMEM (Dulbecco's Modified Eagle Medium), to which 10% of heat inactivated fetal bovine serum and 1% of penicillin and streptomycin were added, at 37° C. and 5% CO2. Then, the above cells were seeded in a 96-well plate at a density of 2×10^4/well. Cromolyn and ionomycin were added thereto in increasing amounts. After 48 hours, 100 μL of the supernatant from each well was transferred to the new plates, 100 μL of the reaction solution was added to each well, the plate was incubated with gentle shaking on an orbital shaker for 30 minutes at the room temperature, and then the absorbance was measured at 490 nm with a plate reader.

[2] = system: HSC-T6 cell line
Method: as §1

[3] = system: LX2 cell line; experiment: MTT assay, cell proliferation; format: cell-based; details: for effect on proliferation at low level: LX2, 0.1 μM; for proliferation activity: LX2, increasing levels, compared to untreated control
Method: (§2) To confirm the proliferation activity on hepatic stellate cells, a MTT (3-(4,5-dimethylthiazol-2-yl)-2,5-diphenyltetrazolium bromide) assay was performed, and the HSC-T6 and LX2 cell lines obtained from <Example 1> above were used as hepatic stellate cells.
(§3) Specifically, the MTT assay was performed by seeding the cell suspensions of each cell onto a 96-well plate at a density of 5×10^4 cells/well. Then, the MIT stock solution (5 mg/mL) in which MTT was dissolved in PBS (phosphate-buffered saline, pH 7.2) was prepared, and 15 μL of the MTT solution was added to each well after filtration. After culturing for 4 hours at 37° C. and 5% CO2, the reaction was terminated by adding 185 μL of solubilization solution to each well, and then the cell viability was measured at an absorbance of 620 nm using an ELISA (enzyme-linked immunosorbent assay) reader. Furthermore, cell viability was measured by calculating the ratio of absorbance of the cells treated/untreated with the candidate agents.

[4] = system: HSC-T6 cell line; experiment: MTT assay, cell proliferation; format: cell-based; details: for effect on proliferation at low level: HSC-T6, 0.1 μM; for proliferation activity: HSC-T6, increasing levels, compared to untreated control
Method: as §2, §3

[5] = system: LX-2 cell line; experiment: TGF-β production by ELISA; format: cell-based; details: LX-2, different concentrations
Method: (§4) To confirm whether cromolyn inhibits the production of TGF-β and the accumulation of collagen, which are known as the major secretion marker of activated HSCs, LX-2 and HCT-T6 cell lines were analyzed by ELISA.

[6] = system: HSC-T6 cell line; experiment: TGF-β production by ELISA; format: cell-based; details: HSC-T6, different concentrations
Method: as §4

[7] = system: primary hepatocytes; experiment: wound assay, cell motility; format: cell-based, mouse
Method: (§5) Further, the experiment on hepatocytes was conducted by isolating the primary hepatocyte from the liver of a male C57BL6 mouse of around 6 weeks old.
The effect of cromolyn on restoration in hepatocytes was verified. […] Therefore, the present inventors confirmed the motility of primary hepatocytes by treating cromolyn in the presence and absence of TGF-β, which induces EMT.
(§6) Specifically, cell motility according to treatment with cromolyn was analyzed by using the known wound assay in the presence and absence of TGF-β (2 ng/mL), and the healing distance of the wound was measured by […]. Further, after treating with TGF-β and cromolyn, changes in the E-cadherin expression was verified, which was confirmed by treating primary hepatocytes with TGF-β (Carl Bio Chem, USA) and then conducting Western Blots using the antibody against E-cadherin (H-180) (Santa Cruz, USA). In addition, tubulin was used as the loading control.

[8] = system: LX-2 cell line; experiment: Sirius Red total collagen detection; format: cell-based; details: LX-2, increasing level, 48 hours
Method: (§7) To confirm whether cromolyn inhibits the production of TGF-β and the accumulation of collagen, which are known as the major secretion marker of activated HSCs, LX-2 and HCT-T6 cell lines were analyzed by ELISA. Specifically, collagen was detected by using the Sirius Red Total Collagen Detection Kit (Chondrex, USA). The suspended cells were seeded in a 24-well plate at a density of 1×10^4 cells/well, and treated with various amounts of cromolyn for 48 hours. Then, the diluted solutions or standard samples were added to 1.5-mL centrifuge tubes in duplicate. Subsequently, each tube was incubated for 20 minutes at room temperature together with 500 μl of the Sirius Red solution. The supernatant was removed, the tubes were washed twice, and 200 μL of the final supernatant was transferred to a 96-well plate. The optical density was measured at 510-550 nm.

[9] = system: HSC-T6 cell line; experiment: Sirius Red total collagen detection; format: cell-based; details: HSC-T6, increasing level, 48 hours
Method: as §7

[10] = system: primary hepatocytes; experiment: SA-β-gal (Senescence β-galactosidase) staining; format: cell-based, mouse; details: three days in vitro culture
Method: as §5
Since senescence is a typical phenomenon of fibrosis, the anti-senescence effect of cromolyn on hepatocytes was confirmed by using β-galactosidase staining, which is a senescence index.
SA-β-gal (Senescence β-galactosidase) staining was performed by using the Senescence β-Galactosidase Staining Kit (Biovision, USA) according to the method provided by the manufacturer. Specifically, after washing with PBS, the cells were fixed by 2% formaldehyde and 0.2% glutaraldehyde in PBS for 15 minutes at room temperature. The fixed cells were washed with PBS, and incubated together with X-gal staining solution for 24 hours at 37° C. The cells were visualized, and photographs were taken with the Zeiss PALM laser capture microdissection microscope (Zeiss, Germany).

[11] = system: E-cadherin in primary hepatocytes; experiment: E-cadherin expression by Western Blots; format: cell-based, mouse; details: primary hepatocytes treated with TGF-β
Method: as §5, §6

SMILES | cytotoxicity (LDH release) ([1]; human, 48 h) | cytotoxicity (LDH release) ([2]; rat, 48 h) | effect on proliferation at low level [3] | proliferation activity [3] | effect on proliferation at low level [4] | proliferation activity [4] | production of TGF-β [5] | production of TGF-β [6] | motility of hepatocytes ([7]; absence of TGF-β, compared to untreated control) | inhibition of migration activity of hepatocytes in terms of migration distance ([7]; presence of TGF-β (2 ng/mL), 48 hours) [%] | released collagen [8] | released collagen [9] | number of β-galactosidase-positive cells [10] | expression of E-cadherin [11] | cytotoxicity (LDH release) ([1]; LX-2, increasing amounts, 48 hours (FIG. 2D)) | cytotoxicity (LDH release) ([2]; HSC-T6, increasing amounts, 48 hours (FIG. 2C))
O=C(O)c1cc(=O)c2c(OCC(O)COc3cccc4oc(C(=O)O)cc(=O)c34)cccc2o1 [cromolyn, cromoglicic acid] | no cytotoxicity except at the high level (10 μM) | no cytotoxicity except at the high level (10 μM) | anti-proliferation effect was confirmed | decrease | did not show a significant effect | decrease | inhibit the production of TGF-β in a concentration-dependent manner | inhibit the production of TGF-β in a concentration-dependent manner | did not show a significant difference | 15 | significantly decreases | significantly decreases | decrease in a concentration-dependent manner | significantly inhibit the decrease in the expression of E-cadherin in a concentration-dependent manner | – | –
C[C@H](CCC(=O)O)C[C@H](C)C[C@H](C)C(=O)/C=C(\O)[C@H](C)C[C@H](C)C/C=C/[C@@H](C)[C@@H](O)[C@@H](C)[C@@H](O)C[C@@H]1CC[C@@](C)([C@H]2CC[C@@](C)([C@@H](C)O)O2)O1 [ionomycin] | – | – | anti-proliferation effect was confirmed | decrease | did not show a significant effect | decrease | – | – | – | – | – | – | – | – | induce cell death in a concentration dependent manner | induce cell death in a concentration dependent manner
